Results from patent publication US20240059655A1, “HETEROCYCLIC G-PROTEIN-COUPLED RECEPTOR 52 (GPR52) AGONISTS” (Board of Regents, The University of Texas System, priority 2020, published 2024).
Entries after “also recorded” stand apart in the source; their conditions may differ.

Assays:
GABAA = assay: NIMH-PDSP broad-panel counter screening (binding); details: mean percent inhibition of binding
5-HT2C = 5-HT2C (Homo sapiens (Human), UniProt P28335); assay: NIMH-PDSP broad-panel counter screening (binding)
5-HT2C, sequence (P28335 33-458, species assumed): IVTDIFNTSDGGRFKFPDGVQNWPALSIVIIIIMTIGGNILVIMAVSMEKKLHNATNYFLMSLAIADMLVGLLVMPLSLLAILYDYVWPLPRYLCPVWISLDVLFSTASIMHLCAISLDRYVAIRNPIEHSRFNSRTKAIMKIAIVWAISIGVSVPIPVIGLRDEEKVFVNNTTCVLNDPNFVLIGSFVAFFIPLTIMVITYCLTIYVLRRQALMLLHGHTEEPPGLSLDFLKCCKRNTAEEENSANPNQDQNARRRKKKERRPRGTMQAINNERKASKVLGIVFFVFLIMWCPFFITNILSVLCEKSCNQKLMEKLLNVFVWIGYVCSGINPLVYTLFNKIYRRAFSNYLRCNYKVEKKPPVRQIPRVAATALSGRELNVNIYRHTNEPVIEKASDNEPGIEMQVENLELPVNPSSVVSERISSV

human GPR52 = human GPR52 (Homo sapiens (Human), UniProt Q9Y2T5); assay: Glosensor cAMP assay in HEK293 cells transiently expressing human GPR52; format: cell-based; details: relative to compound 4 as 100% and 0.5% DMSO as 0%, mean ± SEM, "—" not detected
human GPR52, sequence (Q9Y2T5 whole entry): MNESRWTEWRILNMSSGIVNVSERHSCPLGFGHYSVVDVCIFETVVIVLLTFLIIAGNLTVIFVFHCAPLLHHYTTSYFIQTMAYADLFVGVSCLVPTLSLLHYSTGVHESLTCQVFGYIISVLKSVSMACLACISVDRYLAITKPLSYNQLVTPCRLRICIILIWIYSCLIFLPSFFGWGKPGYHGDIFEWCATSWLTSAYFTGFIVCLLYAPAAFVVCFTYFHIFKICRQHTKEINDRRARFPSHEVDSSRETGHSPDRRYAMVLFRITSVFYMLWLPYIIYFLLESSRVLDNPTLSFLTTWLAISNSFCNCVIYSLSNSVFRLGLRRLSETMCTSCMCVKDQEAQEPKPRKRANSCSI

hERG potassium channel = hERG potassium channel (Homo sapiens (Human), UniProt Q12809); assay: NIMH-PDSP broad-panel counter screening (binding)
hERG potassium channel, sequence (Q12809 whole entry): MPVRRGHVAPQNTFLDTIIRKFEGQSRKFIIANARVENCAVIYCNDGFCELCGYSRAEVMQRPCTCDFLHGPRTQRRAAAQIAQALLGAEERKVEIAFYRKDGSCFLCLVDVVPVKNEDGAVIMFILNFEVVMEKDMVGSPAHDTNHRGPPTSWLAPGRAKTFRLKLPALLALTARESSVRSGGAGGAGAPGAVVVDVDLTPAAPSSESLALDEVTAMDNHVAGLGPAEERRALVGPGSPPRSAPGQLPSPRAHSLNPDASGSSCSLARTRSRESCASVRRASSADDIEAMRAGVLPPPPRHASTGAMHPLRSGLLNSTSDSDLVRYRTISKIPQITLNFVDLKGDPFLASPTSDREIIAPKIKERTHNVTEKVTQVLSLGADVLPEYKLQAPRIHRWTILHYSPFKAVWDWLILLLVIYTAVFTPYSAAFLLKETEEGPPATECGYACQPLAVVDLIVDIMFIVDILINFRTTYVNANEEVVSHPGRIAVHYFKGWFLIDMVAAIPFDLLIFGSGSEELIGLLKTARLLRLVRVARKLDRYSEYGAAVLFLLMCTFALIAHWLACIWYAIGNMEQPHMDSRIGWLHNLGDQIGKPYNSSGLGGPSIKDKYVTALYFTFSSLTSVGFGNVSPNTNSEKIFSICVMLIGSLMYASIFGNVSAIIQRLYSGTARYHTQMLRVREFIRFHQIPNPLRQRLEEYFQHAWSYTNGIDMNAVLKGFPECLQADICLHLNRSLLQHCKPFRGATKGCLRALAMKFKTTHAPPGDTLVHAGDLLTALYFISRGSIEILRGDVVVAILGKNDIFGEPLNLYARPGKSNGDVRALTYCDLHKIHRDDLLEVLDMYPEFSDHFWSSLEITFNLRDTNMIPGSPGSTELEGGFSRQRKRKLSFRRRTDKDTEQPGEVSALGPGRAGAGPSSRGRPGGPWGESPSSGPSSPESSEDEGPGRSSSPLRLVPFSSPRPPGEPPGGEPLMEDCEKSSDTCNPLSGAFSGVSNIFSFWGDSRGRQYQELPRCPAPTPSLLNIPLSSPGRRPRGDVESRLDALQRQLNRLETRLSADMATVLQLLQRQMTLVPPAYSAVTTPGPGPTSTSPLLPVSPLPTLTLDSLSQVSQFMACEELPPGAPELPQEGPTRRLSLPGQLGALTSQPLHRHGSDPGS

[1] = test system: HEK293 cells lacking GPR52; assay: cAMP Glosensor control in HEK293 cells lacking GPR52 (empty vector); details: HEK293 cells with empty vector, 0.1 nM-10 μM
In vivo PK in rats = details: rat; for AUC(0-inf): mean ± SEM
Experimental: In Vivo PK and Brain Permeability Studies. […] 100 μL of blood (yielding ˜50 μL of plasma) samples are taken from the animal's jugular vein and placed into micro K2EDTA tubes. Blood samples were placed on ice and centrifuged at 8000 rpm for 5 min at 4° C. to generate plasma sample within 0.5 h of collection. Brain samples were collected at 0.25 and 1 h post-dosing. All samples were stored at −20° C. […] The Sundia animal facility is approved with yearly inspection by the Shanghai Laboratory Animal Management Committee. All treatment assignments were blinded to investigators who performed PK assays and end point statistical analyses. […] The peak concentration (Cmax) was directly obtained by visual inspection of the plasma concentration-time profile. The elimination rate constant (λ) was obtained by the least-squares fitted terminal log-linear portion of the slope of the plasma concentration-time profile. […] The area under the plasma concentration-time curve from 0 to time t (AUC0-t) was evaluated using the linear trapezoidal rule and further extrapolated to infinity (AUC0-∞) according to the following equation: AUC0-∞=AUC0-t+Clast/λ. The pharmacokinetic parameters were presented as mean±SEM.

[2] = Brain permeability in rats; format: in vivo; details: male, Sprague-Dawley, brain/plasma, rat, IV 10 mg/kg, read-out: Brain/Plasma Ratio
Experimental: In Vivo PK and Brain Permeability Studies. Male Sprague-Dawley rats (n=3 per treatment group; […] Rats were randomly assigned to treatment groups. […] The rat was restrained manually at the designated time points (0.08, 0.25, 0.5, 1.0, 2.0, 4.0, 8.0, and 24 h post-dosing for IV; 0.25, 0.5, 1.0, 2.0, 4.0, 8.0, and 24 h post-dosing for PO). 100 μL of blood (yielding ˜50 μL of plasma) samples are taken from the animal's jugular vein and placed into micro K2EDTA tubes. Blood samples were placed on ice and centrifuged at 8000 rpm for 5 min at 4° C. to generate plasma sample within 0.5 h of collection. Brain samples were collected at 0.25 and 1 h post-dosing. All samples were stored at −20° C. The concentration of 12c in each sample was analyzed by Sundia MediTech Co., Ltd. The study and the related standard operating procedures were reviewed and approved by the Sundia Institutional Animal Care and Use Committee. The Sundia animal facility is approved with yearly inspection by the Shanghai Laboratory Animal Management Committee. All treatment assignments were blinded to investigators who performed PK assays and end point statistical analyses.

C57/BL6 mice = assay: Locomotor activity and amphetamine-induced hyperlocomotion in mice; details: P<0.05 vs vehicle; for AMPH-induced horizontal activity, first 30 min after AMPH: AMPH 3 mg/kg IP
[3] = male, Sprague-Dawley, plasma, IV 10 mg/kg
[4] = male, Sprague-Dawley, plasma, PO 20 mg/kg

SMILES: O=C(NCCO)c1cccc2c1CCN2c1cc(Cc2cc(F)cc(C(F)(F)F)c2)ncn1 [Compound 12c, 1-(6-(3-Fluoro-5-(trifluoromethyl)benzyl)pyrimidin-4-yl)-N-(2-hydroxyethyl)indoline-4-carboxamide]
- % inhibition (10 μM) (GABAA): 5.98%
- Ki (5-HT2C): > 10 µM
- Emax (human GPR52; HEK293, cAMP assay, read-out: Emax (%)): 136%
- Emax (%) (human GPR52; cAMP assay): 134%
- hERG potassium channel binding activity (hERG potassium channel; 10 μM): did not show any
- % inhibition (10 μM) (hERG potassium channel; hERG, mean percent inhibition of binding): 11.04%
- cAMP increase in cells lacking GPR52 [1]: no increase in cAMP; also recorded: did not increase cAMP
- Cmax (In vivo PK in rats; [3]): 6730 ng/mL
- clearance (In vivo PK in rats; [3]): 18.3 mL/min/kg
- AUC(0-inf) (In vivo PK in rats; [3]): 9030 ng·h/mL
- Vd (In vivo PK in rats; male, Sprague-Dawley, plasma, IV 10 mg/kg, read-out: Vss): 1.5 L/kg
- Cmax (In vivo PK in rats; [4]): 3410 ng/mL
- AUC(0-inf) (In vivo PK in rats; [4]): 13700 ng·h/mL
- bioavailability (In vivo PK in rats; male, Sprague-Dawley, plasma, oral, 20 mg/kg): 76%
- CL (In vivo PK in rats; IV 10 mg/kg): 18.3 ± 1.7 mL/min/kg
- CL (In vivo PK in rats; PO 20 mg/kg): 25 ± 5 mL/min/kg
- Vss (In vivo PK in rats; PO 20 mg/kg): 5.5 ± 1.16 L/kg
- F (%) (In vivo PK in rats; absolute oral bioavailability, PO 20 mg/kg vs IV 10 mg/kg): 76 ± 15%
- Kp at […] ([2]; 0.25 h): 0.28
- Kp at 1 h ([2]; 1 h): 0.39
- AMPH-induced horizontal activity, first 30 min after AMPH (C57/BL6 mice; 3 mg/kg IP): suppressed AMPH-induced horizontal activity
- horizontal activity/30 min after compound injection (C57/BL6 mice; 3 mg/kg IP): suppressed horizontal activity
- AMPH-induced horizontal activity, first 30 min after AMPH (C57/BL6 mice; 10 mg/kg IP): suppressed AMPH-induced horizontal activity
- horizontal activity/30 min after compound injection (C57/BL6 mice; 10 mg/kg IP): suppressed horizontal activity
